# Results published in US11492341B2, “ACLY inhibitors and uses thereof” (Nimbus Artemis, Inc., priority 2018, dated 2022).
# Molecular target: ACL (Homo sapiens (Human), UniProt P53396)
# Assay: ADP-Glo Assay
# Type: biochemical
# Conditions: 3 nM ACL, 15 μM ATP, 3 μM CoA, 300 μM Citrate
# Procedure: Example 28. ADP-Glo Assay
# Compounds of the present invention were evaluated in an ADP-GLO assay as follows: a) Dilute cpd 1:3 in succession in DMSO by hand for each cpds for 12 pts b) Add 0.1 μL diluted cpd solution to assay plate, each dose with 2 replicates c) Centrifuge 1000 RPM for 1 min d) Add 5 μL ACL working solution to 384-well assay plate, centrifuge 1000 RPM for 1 min e) Incubate at 25° C. for 15 min f) Add 5 μL substrate working solution to initiate reaction g) Final ACL reaction concentrations: 3 nM ACL, 15 μM ATP, 3 μM CoA, 300 μM Citrate, 0.01% Brij35, 4 mM DTT, 1% DMSO; h) Reference final conc: 30 uM starting Conc, 3× dilution, 11+0 points. Test cpd conc: 30/100 uM starting Conc, 3× dilution, 11+0 points. i) Incubate at 25° C. for 60 min j) Add 10 μL ADP Glo reagent, centrifuge 1000 RPM for 1 min k) Incubate at 25° C. for 40 min l) Add 20 μL kinase detection reagent, centrifuge 1000 RPM for 1 min m) Incubate at 25° C. for 40 min n) Read on Envision for US LUM as RLU
# Chain of ACL (P53396 whole entry, species assumed): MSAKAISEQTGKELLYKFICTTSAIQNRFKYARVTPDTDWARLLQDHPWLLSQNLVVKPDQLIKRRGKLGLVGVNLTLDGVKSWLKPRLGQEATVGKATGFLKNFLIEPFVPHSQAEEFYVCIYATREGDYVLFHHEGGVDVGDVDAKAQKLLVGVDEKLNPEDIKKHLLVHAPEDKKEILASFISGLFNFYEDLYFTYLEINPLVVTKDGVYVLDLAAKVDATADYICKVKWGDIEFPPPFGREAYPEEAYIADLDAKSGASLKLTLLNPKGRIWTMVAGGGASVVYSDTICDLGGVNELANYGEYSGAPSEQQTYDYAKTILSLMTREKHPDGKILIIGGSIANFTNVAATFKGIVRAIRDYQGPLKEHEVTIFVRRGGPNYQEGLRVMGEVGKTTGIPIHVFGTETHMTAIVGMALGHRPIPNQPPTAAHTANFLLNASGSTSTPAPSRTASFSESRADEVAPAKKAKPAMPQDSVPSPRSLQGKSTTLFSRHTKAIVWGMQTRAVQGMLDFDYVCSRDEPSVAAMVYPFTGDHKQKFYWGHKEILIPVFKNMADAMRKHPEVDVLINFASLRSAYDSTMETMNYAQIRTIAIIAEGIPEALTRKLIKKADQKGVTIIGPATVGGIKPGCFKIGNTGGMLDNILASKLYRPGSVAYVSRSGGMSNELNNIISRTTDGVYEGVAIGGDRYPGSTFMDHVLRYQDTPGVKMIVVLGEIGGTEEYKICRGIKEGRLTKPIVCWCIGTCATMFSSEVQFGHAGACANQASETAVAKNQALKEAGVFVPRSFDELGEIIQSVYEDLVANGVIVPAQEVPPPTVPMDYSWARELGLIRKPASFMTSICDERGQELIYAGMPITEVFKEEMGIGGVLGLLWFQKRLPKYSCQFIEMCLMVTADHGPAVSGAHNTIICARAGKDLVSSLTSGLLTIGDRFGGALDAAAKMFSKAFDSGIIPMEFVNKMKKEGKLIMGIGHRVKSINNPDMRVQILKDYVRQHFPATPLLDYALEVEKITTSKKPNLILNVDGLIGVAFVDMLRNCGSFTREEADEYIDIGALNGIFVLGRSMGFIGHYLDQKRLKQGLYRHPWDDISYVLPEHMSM
row,Compound,IC50
1,CN(C)C(=O)c1cc2cc(Cl)ccc2n1S(=O)(=O)c1cc(Cl)cc(Cl)c1O [I-111],500 to 20000 nM
2,O=C(O)c1cc(Cl)c(O)c(S(=O)(=O)N2CCc3ccc(-c4ccccc4)cc32)c1 [I-5],500 to 20000 nM
3,Cc1cc2cc(Cl)ccc2n1S(=O)(=O)c1cc(-c2cncs2)cc(Cl)c1O [I-156],500 to 20000 nM
4,O=S(=O)(c1cc(Cl)cc(Cl)c1O)N1CCC(Oc2ccccc2)CC1 [I-10],500 to 20000 nM
5,O=S(=O)(c1cc(F)cc(F)c1O)n1c(-c2cnccn2)cc2cc(Cl)ccc21 [I-105],500 to 20000 nM
6,N#Cc1ccc2c(c1)cc(C1CC1)n2S(=O)(=O)c1cc(F)cc(F)c1O [I-82],500 to 20000 nM
7,NC(=O)c1ccc2c(c1)cc(-c1ccccc1)n2S(=O)(=O)c1cc(Cl)cc(Cl)c1O [I-57],500 to 20000 nM
8,O=S(=O)(c1cncc(O)c1)n1c(-c2ccccc2)cc2cc(Cl)ccc21 [I-119],≥ 20000 nM
9,N#Cc1ccc2c(c1)cc(-c1cn[nH]c1)n2S(=O)(=O)c1cc(F)cc(F)c1O [I-74],500 to 20000 nM
10,"O=S(=O)(c1cc(Br)cc(Cl)c1O)n1c(-c2ccccc2)cc2ccccc21 [I-23, 4-bromo-2-chloro-6-((2-phenyl-1H-indol-1-yl)sulfonyl)phenol]",500 to 20000 nM
11,O=S(=O)(c1cccc(Cl)c1O)n1c(-c2ccccc2)cc2cc(Cl)ccc21 [I-63],500 to 20000 nM
12,"O=S(=O)(c1cc(Br)cc(Cl)c1O)n1c(-c2ccc(OC(F)(F)F)cc2)cc2ccncc21 [I-49, 4-bromo-2-chloro-6-((2-(4-(trifluoromethoxy)phenyl)-1H-pyrrolo[2,3-c]pyridin-1-yl)sulfonyl)phenol]",500 to 20000 nM
13,CN(C)C(=O)c1ccc(-c2cc3cc(Cl)ccc3n2S(=O)(=O)c2cc(Cl)cc(Cl)c2O)cc1 [I-60],500 to 20000 nM
14,O=S(=O)(c1cc(Br)cc(Cl)c1O)n1c(-c2cccnc2)cc2cc(Cl)ccc21 [I-34],< 500 nM
15,"CN(C)C(=O)c1ccc(-c2cc3cc(Cl)ccc3n2S(=O)(=O)c2cc(Br)cc(Cl)c2O)cc1 [I-50, 4-(1-((5-bromo-3-chloro-2-hydroxyphenyl)sulfonyl)-5-chloro-1H-indol-2-yl)-N,N-dimethylbenzamide]",500 to 20000 nM
16,O=C(O)c1cc(C(=O)O)c(O)c(S(=O)(=O)n2c(-c3ccccc3)cc3cc(Cl)ccc32)c1 [I-121],500 to 20000 nM
17,O=C(O)c1cc(Cl)c(O)c(S(=O)(=O)n2c(-c3ccccc3)cc3cc(Cl)ccc32)c1 [I-73],500 to 20000 nM
18,O=S(=O)(c1cc(Cl)cc(Cl)c1O)N1CC2(CCOCC2)c2ccccc21 [I-6],500 to 20000 nM
19,O=C(O)c1ccc2c(c1)cc(-c1ccccc1)n2S(=O)(=O)c1cc(Br)cc(Cl)c1O [I-55],< 500 nM
20,O=C(O)c1ccc(-c2cc3cc(Cl)ccc3n2S(=O)(=O)c2cc(Cl)cc(Cl)c2O)cc1 [I-59],500 to 20000 nM
21,O=C(O)c1cc2cc(Cl)ccc2n1S(=O)(=O)c1cc(Cl)cc(Cl)c1O [I-66],500 to 20000 nM
22,O=S(=O)(c1cc(Cl)cc(Cl)c1O)N1CCCCC1c1ccccc1 (centres unmarked) [I-22],500 to 20000 nM
23,O=S(=O)(c1cc(Cl)cc(Cl)c1O)N1CC(c2nc3ccccc3s2)C1 [I-15],500 to 20000 nM
24,O=S(=O)(c1cc(F)cc(F)c1O)n1c(-c2ccncc2)cc2cc(Cl)ccc21 [I-93],500 to 20000 nM
25,COc1ccc(N2CCN(S(=O)(=O)c3cc(Cl)cc(Cl)c3O)CC2)cc1 [I-16],500 to 20000 nM

row,Compound,IC50
1,"O=c1[nH]cc(Cl)cc1S(=O)(=O)n1c(-c2ccc(OC(F)(F)F)cc2)cc2cc(Cl)ccc21 [I-64, 5-chloro-3-((5-chloro-2-(4-(trifluoromethoxy)phenyl)-1H-indol-1-yl)sulfonyl)pyridin-2(1H)-one]",500 to 20000 nM
2,"O=S(=O)(c1cc(Br)cc(Cl)c1O)N1CCc2ccc(-c3ccccc3)cc21 [I-3, 4-bromo-2-chloro-6-((6-phenylindolin-1-yl)sulfonyl)phenol]",500 to 20000 nM
3,"O=S(=O)(c1cc(F)cc(F)c1O)n1c(-c2cc3ccccc3s2)cc2cc(Cl)ccc21 [I-143, 2-((2-(benzo[b]thiophen-2-yl)-5-chloro-1H-indol-1-yl)sulfonyl)-4,6-difluorophenol]",500 to 20000 nM
4,"O=c1[nH]cc(Cl)cc1S(=O)(=O)n1c(-c2ccccc2)cc2cc(Cl)ccc21 [I-65, 5-chloro-3-((5-chloro-2-phenyl-1H-indol-1-yl)sulfonyl)pyridin-2(1H)-one]",500 to 20000 nM
5,O=C(O)c1cccc2c1cc(-c1ccccc1)n2S(=O)(=O)c1cc(Cl)cc(Br)c1 [I-68],500 to 20000 nM
6,O=S(=O)(c1cc(F)cc(F)c1O)n1c(-c2ccnnc2)cc2cc(Cl)ccc21 [I-103],500 to 20000 nM
7,O=S(=O)(c1cc(Cl)cc(Cl)c1O)N1CCC(Cc2ccccc2)C1 (centres unmarked) [I-18],500 to 20000 nM
8,"O=S(=O)(c1cc(Br)cc(Cl)c1O)n1ccc2ccc(-c3ccccc3)cc21 [I-4, 4-bromo-2-chloro-6-((6-phenyl-1H-indol-1-yl)sulfonyl)phenol]",500 to 20000 nM
9,Cc1ncc(-c2cc3cc(Cl)ccc3n2S(=O)(=O)c2cc(F)cc(F)c2O)cn1 [I-100],500 to 20000 nM
10,COCOc1cc2c(cc1Cl)cc(C)n2S(=O)(=O)c1cc(Br)cc(Cl)c1O [I-150],500 to 20000 nM
11,"O=S(=O)(c1cc(Cl)cc(Cl)c1O)n1c(-c2ccc(OC(F)(F)F)cc2)cc2cc(Cl)ccc21 [I-32, 2,4-dichloro-6-((5-chloro-2-(4-(trifluoromethoxy)phenyl)-1H-indol-1-yl)sulfonyl)phenol]",500 to 20000 nM
12,COc1c(F)cc2cc(C)n(S(=O)(=O)c3cc(Br)cc(Cl)c3O)c2c1F [I-165],500 to 20000 nM
13,"COc1ccc2c(c1)cc(-c1ccccc1)n2S(=O)(=O)c1cc(Br)cc(Cl)c1O [I-31, 4-bromo-2-chloro-6-((5-methoxy-2-phenyl-1H-indol-1-yl)sulfonyl)phenol]",500 to 20000 nM
14,O=C(O)c1cccc(-c2cc3cc(Cl)ccc3n2S(=O)(=O)c2cc(Br)cc(Cl)c2O)c1 [I-44],< 500 nM
15,O=C(O)Cc1cc2cc(Cl)ccc2n1S(=O)(=O)c1cc(Cl)cc(Cl)c1O [I-88],500 to 20000 nM
16,"O=S(=O)(c1cc(Br)cc(Cl)c1O)n1c(-c2cncnc2)cc2ccccc21 [I-29, 4-bromo-2-chloro-6-((2-(pyrimidin-5-yl)-1H-indol-1-yl)sulfonyl)phenol]",500 to 20000 nM
17,Cc1cncc(-c2cc3cc(Cl)ccc3n2S(=O)(=O)c2cc(F)cc(F)c2O)n1 [I-101],500 to 20000 nM
18,O=C(O)c1ccc(-c2cc3cc(Cl)ccc3n2S(=O)(=O)c2cc(Cl)cc(Cl)c2)cc1 [I-58],500 to 20000 nM
19,O=S(=O)(c1cc(Cl)cc(Cl)c1O)N1CC2(CCOCC2)C1c1ccccc1 (centres unmarked) [I-19],500 to 20000 nM
20,CN(C)C(=O)c1ccccc1-c1cc2cc(Cl)ccc2n1S(=O)(=O)c1cc(Br)cc(Cl)c1O [I-38],500 to 20000 nM
21,O=S(=O)(c1cc(F)cc(F)c1O)n1c(-c2cccc[n+]2[O-])cc2cc(Cl)ccc21 [I-126],≥ 20000 nM
22,"O=S(=O)(c1cc(Br)cc(Cl)c1O)n1c(-c2cncnc2)cc2cc(Cl)ccc21 [I-24, 4-bromo-2-chloro-6-((5-chloro-2-(pyrimidin-5-yl)-1H-indol-1-yl)sulfonyl)phenol]",< 500 nM
23,O=S(=O)(c1cc(Br)cc(Cl)c1O)n1cc(-c2cncs2)c2cc(Cl)ccc21 [I-159],< 500 nM
24,CCOC(=O)c1cc2cc(Cl)ccc2n1S(=O)(=O)c1ccc(-c2ccccc2)cc1F [I-164],≥ 20000 nM
25,"O=C(c1ccc2cc(-c3ccccc3)n(S(=O)(=O)c3cc(Br)cc(Cl)c3O)c2c1)N1CCC1 [I-145, Azetidin-1-yl(1-((5-bromo-3-chloro-2-hydroxyphenyl)sulfonyl)-2-phenyl-1H-indol-6-yl)methanone]",500 to 20000 nM
